Reference: paper PMC7211202 (Investigational New Drugs, 2019)
“And” between values parts separate entries of the source, which are not always exact repeats. Equal values may be shown once.

Assay: Patient incidence of adverse events (CTCAE version 4.0)
Assay type: in vivo
Description: Each patient was monitored for 21 days for the occurrence of dose-limiting toxicities (DLTs), defined as febrile neutropenia, neutropenic infection, grade 4 neutropenia lasting >7 days, grade ≥ 3 thrombocytopenia lasting >7 days (solid tumors only), grade 3 thrombocytopenia with grade ≥ 2 bleeding (solid tumors only), grade 3 or 4 thrombocytopenia with grade > 1 bleeding (multiple myeloma only), grade 4 thrombocytopenia (solid tumors only), or grade 4 thrombocytopenia lasting >14 days (multiple myeloma only), or as grade ≥ 3 nausea, vomiting, or diarrhea after support; grade 3 fatigue lasting >7 days; any other grade ≥ 3 adverse event (AE); grade ≥ 3 kidney injury (multiple myeloma only), or treatment-related AEs not returning to grade ≤ 1 (solid tumors only) per Common Terminology Criteria for Adverse Events (CTCAE), version 4.0. The MTD was defined as the maximum dose, at which the probability of a DLT was ≤25% in Part 1A and ≤ 33% in Parts 1B and 1C. Treatment continued until disease progression, intolerable toxicity, or withdrawal of consent.
AEs were recorded for all enrolled patients.

[1] = dose escalation, 300 mg (n = 4)
[2] = dose escalation, 360 mg (n = 4)
[3] = dose escalation, 480 mg (n = 6)
[4] = dose escalation, Total (n = 39)

CC(C)[C@@H](CS(=O)(=O)C(C)C)N1C(=O)[C@@](C)(CC(=O)O)C[C@H](c2cccc(Cl)c2)[C@H]1c1ccc(Cl)cc1 [AMG 232]
Treatment-related AE: Upper abdominal pain [1]: 1 (25) n (%) | Treatment-related AE: Vomiting [1]: 3 (75) n (%) | Treatment-related serious AE: Abdominal pain (grade 2) [1]: 0 n (%) | Treatment-related serious AE: Dehydration (grade 2) [1]: 1 (25) n (%) | Treatment-related serious AE: Diarrhea [1]: 1 (25) n (%) | Treatment-related serious AE: Diarrhea, Grade 2 [1]: 0 n (%) | Treatment-related serious AE: Diarrhea, Grade 3 [1]: 1 (25) n (%) | Treatment-related serious AE: Febrile neutropenia (grade 3) [1]: 1 (25) n (%) | Treatment-related serious AE: Hematemesis (grade 3) [1]: 0 n (%) | Treatment-related serious AE: Nausea (grade 3) [1]: 0 n (%) | Treatment-related serious AE: Neutropenia (grade 4) [1]: 0 n (%) | Treatment-related serious AE: Non-cardiac chest pain (grade 3) [1]: 0 n (%) | Treatment-related serious AE: Thrombocytopenia (grade 4) [1]: 0 n (%) | Treatment-related serious AE: Vomiting [1]: 2 (50) n (%) | Treatment-related serious AE: Vomiting, Grade 2 [1]: 1 (25) n (%) | Treatment-related serious AE: Vomiting, Grade 3 [1]: 1 (25) n (%) | Patients with any treatment-emergent AE [2]: 4 (100) n (%) | Patients with any treatment-emergent serious AE [2]: 0 n (%) | Patients with any treatment-related AE [2]: 4 (100) n (%) | Patients with any treatment-related AE, Grade 3 [2]: 3 (75) n (%) | Patients with any treatment-related AE, Grade 4 [2]: 2 (50) n (%) | Patients with any treatment-related AE, Grade 5 [2]: 0 n (%) | Patients with any treatment-related serious AE [2]: 0 n (%) | Treatment-related AE: Abdominal pain [2]: 1 (25) n (%) | Treatment-related AE: Anemia [2]: 2 (50) n (%) | Treatment-related AE: Asthenia [2]: 2 (50) n (%) | Treatment-related AE: Decrease appetite [2]: 3 (75) n (%) | Treatment-related AE: Diarrhea [2]: 4 (100) n (%) | Treatment-related AE: Dysgeusia [2]: 1 (25) n (%) | Treatment-related AE: Fatigue [2]: 0 n (%) | Treatment-related AE: Myalgia [2]: 2 (50) n (%) | Treatment-related AE: Nausea [2]: 4 (100) n (%) | Treatment-related AE: Neutropenia [2]: 3 (75) n (%) | Treatment-related AE: Thrombocytopenia [2]: 4 (100) n (%) | Treatment-related AE: Upper abdominal pain [2]: 1 (25) n (%) | Treatment-related AE: Vomiting [2]: 3 (75) n (%) | Treatment-related serious AE: Abdominal pain (grade 2) [2]: 0 n (%) | Treatment-related serious AE: Dehydration (grade 2) [2]: 0 n (%) | Treatment-related serious AE: Diarrhea [2]: 0 n (%) | Treatment-related serious AE: Diarrhea, Grade 2 [2]: 0 n (%) | Treatment-related serious AE: Diarrhea, Grade 3 [2]: 0 n (%) | Treatment-related serious AE: Febrile neutropenia (grade 3) [2]: 0 n (%) | Treatment-related serious AE: Hematemesis (grade 3) [2]: 0 n (%) | Treatment-related serious AE: Nausea (grade 3) [2]: 0 n (%) | Treatment-related serious AE: Neutropenia (grade 4) [2]: 0 n (%) | Treatment-related serious AE: Non-cardiac chest pain (grade 3) [2]: 0 n (%) | Treatment-related serious AE: Thrombocytopenia (grade 4) [2]: 0 n (%) | Treatment-related serious AE: Vomiting [2]: 0 n (%) | Treatment-related serious AE: Vomiting, Grade 2 [2]: 0 n (%) | Treatment-related serious AE: Vomiting, Grade 3 [2]: 0 n (%) | Patients with any treatment-emergent AE [3]: 6 (100) n (%) | Patients with any treatment-emergent serious AE [3]: 4 (67) n (%) | Patients with any treatment-related AE [3]: 6 (100) n (%) | Patients with any treatment-related AE, Grade 3 [3]: 3 (50) n (%) | Patients with any treatment-related AE, Grade 4 [3]: 3 (50) n (%) | Patients with any treatment-related AE, Grade 5 [3]: 0 n (%) | Patients with any treatment-related serious AE [3]: 2 (33) n (%) | Treatment-related AE: Abdominal pain [3]: 0 n (%) | Treatment-related AE: Anemia [3]: 2 (33) n (%) | Treatment-related AE: Asthenia [3]: 0 n (%) | Treatment-related AE: Decrease appetite [3]: 1 (17) n (%) | Treatment-related AE: Diarrhea [3]: 6 (100) n (%) | Treatment-related AE: Dysgeusia [3]: 0 n (%) | Treatment-related AE: Fatigue [3]: 4 (67) n (%) | Treatment-related AE: Myalgia [3]: 1 (17) n (%) | Treatment-related AE: Nausea [3]: 3 (50) n (%) | Treatment-related AE: Neutropenia [3]: 3 (50) n (%) | Treatment-related AE: Thrombocytopenia [3]: 5 (83) n (%) | Treatment-related AE: Upper abdominal pain [3]: 0 n (%) | Treatment-related AE: Vomiting [3]: 4 (67) n (%) | Treatment-related serious AE: Abdominal pain (grade 2) [3]: 0 n (%) | Treatment-related serious AE: Dehydration (grade 2) [3]: 0 n (%) | Treatment-related serious AE: Diarrhea [3]: 0 n (%) | Treatment-related serious AE: Diarrhea, Grade 2 [3]: 0 n (%) | Treatment-related serious AE: Diarrhea, Grade 3 [3]: 0 n (%) | Treatment-related serious AE: Febrile neutropenia (grade 3) [3]: 0 n (%) | Treatment-related serious AE: Hematemesis (grade 3) [3]: 1 (17) n (%) | Treatment-related serious AE: Nausea (grade 3) [3]: 0 n (%) | Treatment-related serious AE: Neutropenia (grade 4) [3]: 1 (17) n (%) | Treatment-related serious AE: Non-cardiac chest pain (grade 3) [3]: 0 n (%) | Treatment-related serious AE: Thrombocytopenia (grade 4) [3]: 2 (33) n (%) | Treatment-related serious AE: Vomiting [3]: 0 n (%) | Treatment-related serious AE: Vomiting, Grade 2 [3]: 0 n (%) | Treatment-related serious AE: Vomiting, Grade 3 [3]: 0 n (%) | Patients with any treatment-emergent AE [4]: 37 (95%) n (%) and 37 (95) n (%) | Patients with any treatment-emergent serious AE [4]: 14 (36%) n (%) and 14 (36) n (%) | Patients with any treatment-related AE, Grade 3 [4]: 13 (33) n (%) | Patients with any treatment-related AE, Grade 4 [4]: 8 (21) n (%) | Patients with any treatment-related AE, Grade 5 [4]: 0 n (%) | Treatment-related AE: Abdominal pain [4]: 4 (10) n (%) | Treatment-related AE: Anemia [4]: 5 (13) n (%) | Treatment-related AE: Asthenia [4]: 4 (10) n (%) | Treatment-related AE: Decrease appetite [4]: 10 (26) n (%) | Treatment-related AE: Diarrhea [4]: 25 (64) n (%) | Treatment-related AE: Dysgeusia [4]: 4 (10) n (%) | Treatment-related AE: Fatigue [4]: 16 (41) n (%) | Treatment-related AE: Myalgia [4]: 4 (10) n (%) | Treatment-related AE: Nausea [4]: 20 (51) n (%) | Treatment-related AE: Neutropenia [4]: 8 (21) n (%) | Treatment-related AE: Thrombocytopenia [4]: 14 (36) n (%) | Treatment-related AE: Upper abdominal pain [4]: 4 (10) n (%) | Treatment-related AE: Vomiting [4]: 18 (46) n (%) | Treatment-related serious AE: Abdominal pain (grade 2) [4]: 1 (3) n (%) | Treatment-related serious AE: Dehydration (grade 2) [4]: 1 (3) n (%) | Treatment-related serious AE: Diarrhea [4]: 2 (5) n (%) | Treatment-related serious AE: Diarrhea, Grade 2 [4]: 1 (3) n (%) | Treatment-related serious AE: Diarrhea, Grade 3 [4]: 1 (3) n (%) | Treatment-related serious AE: Febrile neutropenia (grade 3) [4]: 1 (3) n (%) | Treatment-related serious AE: Hematemesis (grade 3) [4]: 1 (3) n (%) | Treatment-related serious AE: Nausea (grade 3) [4]: 1 (3) n (%) | Treatment-related serious AE: Neutropenia (grade 4) [4]: 1 (3) n (%) | Treatment-related serious AE: Non-cardiac chest pain (grade 3) [4]: 1 (3) n (%) | Treatment-related serious AE: Thrombocytopenia (grade 4) [4]: 2 (5) n (%) | Treatment-related serious AE: Vomiting [4]: 3 (8) n (%) | Treatment-related serious AE: Vomiting, Grade 2 [4]: 1 (3) n (%) | Treatment-related serious AE: Vomiting, Grade 3 [4]: 2 (5) n (%) | Treatment-emergent AE: abdominal pain (dose escalation, all patients): 21% | Treatment-emergent AE: anemia (dose escalation, all patients): 26% | Treatment-emergent AE: decreased appetite (dose escalation, all patients): 39% | Treatment-emergent AE: diarrhea (dose escalation, all patients): 67% | Treatment-emergent AE: fatigue (dose escalation, all patients): 41% | Treatment-emergent AE: nausea (dose escalation, all patients): 59% | Treatment-emergent AE: neutropenia (dose escalation, all patients): 26% | Treatment-emergent AE: thrombocytopenia (dose escalation, all patients): 36% | Treatment-emergent AE: vomiting (dose escalation, all patients): 51% | Treatment-related AE: Diarrhea (dose escalation, all patients): 64% | Treatment-related AE: Fatigue (dose escalation, all patients): 41% | Treatment-related AE: Nausea (dose escalation, all patients): 51% | Treatment-related AE: Neutropenia (dose escalation, all patients): 21% | Treatment-related AE: Thrombocytopenia (dose escalation, all patients): 36% | Treatment-related AE: Vomiting (dose escalation, all patients): 46% | Treatment-related AE: decreased appetite (dose escalation, all patients): 26% | Patients discontinuing treatment due to AEs (entire study (107 patients)): 21 n
